This passage reports MIC results from ChEMBL document CHEMBL1154580, “Identification and total synthesis of a novel dimethylated fatty acid from the Caribbean sponge Calyx podatypa” (2000).

This test deals with Streptococcus mutans. Nature of the test: Antimicrobial activity against Streptococcus mutans MT509. Type of test: functional.

In brackets after ≈: the same amount, converted by molar mass.

For `CC(C)CCCCCCCCCCCC(=O)O`, it took 3.13 µg/mL (≈ 12.9 µM) to inhibit growth (MIC).

For `CCC(C)CCCCCCCCCCC(=O)O` (configuration not stated), the MIC stood at 3.13 µg/mL (≈ 12.9 µM).

The term MIC denotes the smallest concentration in the dilution series that meets the test's criterion for growth inhibition. A lower MIC goes with inhibition by little substance.
